Test results reported in US5202312A, “Imidazole-containing peptides having immunomodulatory activity” (Tanabe Seiyaku Co., Ltd., priority 1988, dated 1993).
Where a SMILES comes first, the peptide text is derived from it.

Columns and labels:
[1] = system: picryl chloride-induced delayed type hypersensitivity; experiment: Inhibitory effect on picryl chloride-induced delayed type hypersensitivity (ear swelling); format: in vivo; conditions: BALB/C female mice, oral, once a day for 7 days, dose 10 mg/kg
Protocol: EXPERIMENT 2 Inhibitory effect on picryl chloride-induced delayed type
BALB/C female mice (10-week-old) were sensitized by spreading one ml of an ethanol solution containing 7 w/v % of picryl chloride to abdominal skin of the mice. In a "test group", a test compound was administered orally to the mice a day for 7 days from the day of sensitization.
7 Days after the sensitization, 10 μl of an olive oil solution containing 1 w/v % of picryl chloride was spread to both side skin of left external ear. 24 Hours later, the mice was sacrificed and the thickness of both ears was immediately measured.
The inhibition (%) of swelling of exterernal ear was calculated according to the following formula: [formula]

[2] = Immunomodulatory effect (general statement, no method)

## COC(=O)[C@H](Cc1c[nH]cn1)NC(=O)[C@H](Cc1ccccc1)NC(=O)N(Cc1ccccc1)NC(=O)OC(C)(C)C [Example 13, 3-tert-butoxycarbonyl-2-benzylcarbazoyl-L-phenylalanyl-L-histidine methyl ester]
[1]
  Inhibition (%) of swelling of external ear: 72.6%

## COC(=O)[C@H](Cc1c[nH]cn1)NC(=O)[C@H](Cc1ccccc1)NC(=O)[C@H](Cc1ccccc1)NC(C)=O [N-acetyl-L-phenylalanyl-L-phenylalanyl-L-histidine methyl ester] (Ac-Phe-Phe-His-OMe)
[2]
  immunomodulatory effect: scarcely an immunomodulatory effect
